Data: US6797255B1, “Methods and compositions for enhancing magnetic resonance imaging” (Mallinckrodt Inc., priority 1985, dated 2004)

Columns and labels:
[1] = Toxicity profile of the gadolinium complex; conditions: in vivo
liver = test: T1 and T2 lowering effects of the gadolinium complex in the liver; conditions: in vivo
[2] = Relaxation parameters T1 and T2 of a 10^−3M solution in a 90 MHz NMR experiment; format: physicochemical; conditions: 10-^−3M solution
Procedure: (§1) The complex, dihydrogen bis(N-[N′-(2,6-diisopropylphenyl)carbamoylmethyl]iminodiaceto)manganese(II) hydrate, was thus isolated as the hydrated species. The solubility of the complex in water was determined to be approximately 0.1% w/v. The relaxation parameters T1 and T2 of a 10-^−3M solution of the complex in a 90 MHz NMR experiment were determined to be 0.107 sec. and 0.007 sec. respectively. The T1 and T2 values for water are 2.51 sec. and 0.150 sec., respectively.
(§2) The relaxation parameters T1 and T2 of a 10^−3M solution of the complex in a 90 MHz NMR experiment were determined to be 126 milliseconds and 1.5 milliseconds, respectively.

[3] = Solubility of the complex in water; format: physicochemical
Procedure: as §1, §2

SMILES	LD50 [1]	toxicity profile [1]	T1 and T2 lowering effects in the liver (liver)	relaxation parameter T1 [2]	relaxation parameter T2 [2]	solubility of the complex in water [3]
Cc1cccc(C)c1NC(=O)CN(CC(=O)[O-])CC(=O)O.Cc1cccc(C)c1NC(=O)CN(CC(=O)[O-])CC(=O)[O-].O.O.[Gd+3] [hydrogen bis(N-[N′-(2,6-dimethylphenyl)carbamoylmethyl]iminodiaceto)gadolinium(III) dihydrate]	about 0.2 mmol/kg	persistent, delayed toxicity	relatively poor T1 and T2 lowering effects in the liver	–	–	–
CC(C)c1cccc(C(C)C)c1NC(=O)CN(CC(=O)[O-])CC(=O)O.CC(C)c1cccc(C(C)C)c1NC(=O)CN(CC(=O)[O-])CC(=O)O.O.[Mn+2] [Example 1]	–	–	–	0.107 s	0.007 s	approximately 0.1 % w/v
